# Read-outs that look alike come from different tables or passages of the source. Where a SMILES comes first, the peptide text is derived from it. [ ]: non-standard residue; d: D form. Aoe = N[C@@H](CCCCCC(=O)[C@@H]1CO1)C(=O)O
# How the values were obtained:
# p16 expression = p16 expression by semi-quantitative RT-PCR in control cell lines; assay type: cell-based, human; conditions: 5uM on three consecutive days; H23 and H441 cell lines
# HDAC1 = HDAC1 (Homo sapiens, UniProt Q13547); conditions: cited from earlier work; for Sensitivity of HDAC1 to the inhibitor: Class 1 HDAC
# HDAC4 = HDAC4 (Homo sapiens, UniProt P56524); conditions: Class 2 HDAC; cited from earlier work
# HDAC6 = biological target: T1, HDAC6 (Homo sapiens, UniProt Q9UBN7); conditions: Class 2 HDAC; cited from earlier work
# T1 sequence (Q9UBN7 1-1215): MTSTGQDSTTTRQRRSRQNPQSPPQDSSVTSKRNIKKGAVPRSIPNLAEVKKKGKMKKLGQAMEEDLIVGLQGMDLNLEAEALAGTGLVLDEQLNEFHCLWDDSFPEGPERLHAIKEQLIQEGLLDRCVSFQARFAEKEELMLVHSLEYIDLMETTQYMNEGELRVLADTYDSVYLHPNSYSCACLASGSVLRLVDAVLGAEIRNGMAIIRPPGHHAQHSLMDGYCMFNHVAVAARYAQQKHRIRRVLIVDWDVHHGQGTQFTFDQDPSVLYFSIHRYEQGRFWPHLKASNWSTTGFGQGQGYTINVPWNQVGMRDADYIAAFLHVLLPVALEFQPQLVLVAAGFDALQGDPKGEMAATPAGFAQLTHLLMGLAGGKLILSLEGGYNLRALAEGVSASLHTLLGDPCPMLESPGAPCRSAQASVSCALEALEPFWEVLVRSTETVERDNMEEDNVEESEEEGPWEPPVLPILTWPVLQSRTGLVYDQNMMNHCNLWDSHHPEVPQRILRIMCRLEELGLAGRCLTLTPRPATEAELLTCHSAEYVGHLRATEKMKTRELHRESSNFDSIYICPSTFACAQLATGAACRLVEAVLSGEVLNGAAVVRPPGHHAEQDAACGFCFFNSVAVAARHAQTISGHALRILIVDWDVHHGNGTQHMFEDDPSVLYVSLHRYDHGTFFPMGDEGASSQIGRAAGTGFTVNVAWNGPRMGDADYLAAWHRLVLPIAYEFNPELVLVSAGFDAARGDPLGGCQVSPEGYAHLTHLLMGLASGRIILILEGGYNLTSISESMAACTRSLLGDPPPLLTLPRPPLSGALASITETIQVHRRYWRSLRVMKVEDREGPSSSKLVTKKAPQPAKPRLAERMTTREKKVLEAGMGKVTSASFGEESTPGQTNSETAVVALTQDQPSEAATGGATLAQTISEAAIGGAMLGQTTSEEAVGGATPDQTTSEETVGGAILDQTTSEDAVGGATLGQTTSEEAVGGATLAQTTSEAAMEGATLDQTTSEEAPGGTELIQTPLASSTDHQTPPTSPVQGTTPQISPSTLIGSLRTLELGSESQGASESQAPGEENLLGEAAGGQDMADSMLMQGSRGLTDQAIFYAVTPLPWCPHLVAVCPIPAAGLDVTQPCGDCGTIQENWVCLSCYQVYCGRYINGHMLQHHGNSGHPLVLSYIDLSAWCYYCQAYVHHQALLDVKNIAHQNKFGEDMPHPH
# HDAC3 = HDAC3 (Homo sapiens, UniProt O15379); conditions: cited from earlier work; for IC50: read-out: IC50 HDAC3
# H23 and SW13 cell lines = experiment: Toxicity to BRG1/BRM-deficient cell lines; assay type: cell-based, human; conditions: most pronounced in the H23 and SW13 cell lines
# HDAC10 = biological target: T2, HDAC10 (Homo sapiens, UniProt Q969S8); conditions: Class 2 HDAC; cited from earlier work
# T2 sequence (Q969S8 1-669): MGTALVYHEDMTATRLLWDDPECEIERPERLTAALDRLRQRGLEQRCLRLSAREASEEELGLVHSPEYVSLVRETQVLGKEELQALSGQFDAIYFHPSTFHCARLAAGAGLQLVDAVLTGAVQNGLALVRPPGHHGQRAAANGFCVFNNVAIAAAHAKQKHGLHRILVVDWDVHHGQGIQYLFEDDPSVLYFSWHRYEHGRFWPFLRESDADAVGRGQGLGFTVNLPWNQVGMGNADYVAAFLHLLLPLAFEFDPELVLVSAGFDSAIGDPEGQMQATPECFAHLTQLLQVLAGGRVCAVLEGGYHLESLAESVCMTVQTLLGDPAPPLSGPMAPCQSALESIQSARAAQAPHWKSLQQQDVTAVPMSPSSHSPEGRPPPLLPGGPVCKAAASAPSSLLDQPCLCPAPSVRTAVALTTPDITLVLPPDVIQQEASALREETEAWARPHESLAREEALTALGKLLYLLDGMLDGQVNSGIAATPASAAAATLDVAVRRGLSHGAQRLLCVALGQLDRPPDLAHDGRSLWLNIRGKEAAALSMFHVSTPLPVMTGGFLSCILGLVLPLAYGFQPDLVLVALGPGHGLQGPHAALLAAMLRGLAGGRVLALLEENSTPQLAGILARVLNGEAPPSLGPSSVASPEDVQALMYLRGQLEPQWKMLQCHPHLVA
# HDAC9 = HDAC9 (Homo sapiens, UniProt Q9UKV0); conditions: Class 2 HDAC; cited from earlier work
# HDAC5 = HDAC5 (Homo sapiens, UniProt Q9UQL6); conditions: Class 2 HDAC; cited from earlier work
# Class 3 HDACs = conditions: cited from earlier work
# HDAC8 = biological target: T3, HDAC8 (Homo sapiens, UniProt Q9BY41); conditions: Class 1 HDAC; cited from earlier work
# T3 sequence (Q9BY41 1-377): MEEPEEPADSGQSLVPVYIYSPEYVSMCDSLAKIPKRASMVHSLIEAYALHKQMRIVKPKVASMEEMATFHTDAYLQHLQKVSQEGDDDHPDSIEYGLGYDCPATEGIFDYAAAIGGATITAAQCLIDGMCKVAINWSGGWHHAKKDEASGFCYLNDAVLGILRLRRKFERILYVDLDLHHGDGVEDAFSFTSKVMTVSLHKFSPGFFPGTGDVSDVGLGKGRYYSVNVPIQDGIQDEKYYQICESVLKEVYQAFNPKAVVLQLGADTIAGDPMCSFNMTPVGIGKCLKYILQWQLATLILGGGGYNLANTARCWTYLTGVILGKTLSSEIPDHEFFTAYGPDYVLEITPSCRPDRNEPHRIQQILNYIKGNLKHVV
# HDAC2 = HDAC2 (Homo sapiens, UniProt Q92769); conditions: Class 1 HDAC; cited from earlier work
# BRM expression [1] = experiment: Time course of BRM expression in SW13 cells with butyrate and after its removal; assay type: cell-based, human
# Description: Cells were treated daily with sodium butyrate (5 mM). Total protein was extracted at 4, 12, 24, 36, […], and 72 hours after the first dosage. Upregulation of BRM with butyrate treatment was detected after 12 hours and reached a plateau between 24 and 48 hours. GAPDH was the loading control. […] Cells were treated with sodium butyrate at a final concentration of 5 mM for three consecutive days. On the fourth day, the medium was changed and cells were harvested at various time points for protein detection. BRM protein levels declined and returned to baseline after 4-5 days. (NaBut=sodium butyrate, un=untreated).
# This Example describes an analysis of the temporal effects of HDAC inhibitors on BRM re-expression. In partciular, to understand how HDAC inhibitors affected BRM expression, the time course at which BRM expression in SW13 cells was induced by continued exposure to butyrate was determined. The upregulation of BRM expression was detected by western blot analysis at 12 hours and reached a plateau at 24 hours. Little change in BRM expression occurred with continued treatment for an additional 48 hours (FIG. 3A). This process was reversible, as BRM expression returned to pretreatment levels after removal of sodium butyrate. To further characterize this effect, SW13 cells were treated with butyrate for 72 hours, sodium butyrate was removed, and BRM levels were measured by western blotting from 0 to 6 days. The BRM protein levels remained elevated for 72 hours and returned to near baseline levels at 96 hours (FIG. 3B). In parallel with BRM protein, the BRM mRNA level determined by quantative RT-PCR, also remained elevated for 3 days, returning to baseline level by 4 days. These findings indicate the changes in BRM protein levels paralleled the changes in the BRM mRNA levels.
# BRM expression [2] = experiment: BRM mRNA (RT-PCR) and protein (western blotting) expression in BRG1/BRM-deficient cell lines after treatment
# Description: This example describes the treatment of cells lines with undetectable BRG1 and BRM protein expression with various HDAC inhibitors or 5-aza-deoxycytidine (5-azaCdR). […] This upregulation effect was also examined in the six other BRG1/BRM-deficient cell lines, using RT-PCR.
# [3] = SW13, continued exposure, 5 mM daily (FIG. 3A)
# [4] = SW13, treated 72 hours, then removed
# [5] = SW13, treated 72 hours, then removed (FIG. 3B)
# Sequence of HDAC3 (O15379 whole entry): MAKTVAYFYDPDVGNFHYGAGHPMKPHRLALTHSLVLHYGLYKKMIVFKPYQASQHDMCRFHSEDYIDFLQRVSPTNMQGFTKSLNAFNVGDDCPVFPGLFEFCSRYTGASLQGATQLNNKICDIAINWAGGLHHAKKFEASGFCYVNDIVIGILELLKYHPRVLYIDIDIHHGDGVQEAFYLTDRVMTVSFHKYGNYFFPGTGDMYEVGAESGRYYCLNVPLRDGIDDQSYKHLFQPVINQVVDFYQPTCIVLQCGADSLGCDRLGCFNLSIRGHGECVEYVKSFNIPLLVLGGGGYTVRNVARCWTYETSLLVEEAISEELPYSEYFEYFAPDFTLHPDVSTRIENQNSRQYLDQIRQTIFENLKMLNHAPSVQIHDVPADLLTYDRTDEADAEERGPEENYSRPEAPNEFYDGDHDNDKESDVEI
# Sequence of HDAC3 (Q9Y618 395-489 partner limits assumed): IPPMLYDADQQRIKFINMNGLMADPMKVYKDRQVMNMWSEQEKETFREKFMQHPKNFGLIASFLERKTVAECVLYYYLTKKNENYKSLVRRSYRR
# Sequence of HDAC1 (Q13547 whole entry): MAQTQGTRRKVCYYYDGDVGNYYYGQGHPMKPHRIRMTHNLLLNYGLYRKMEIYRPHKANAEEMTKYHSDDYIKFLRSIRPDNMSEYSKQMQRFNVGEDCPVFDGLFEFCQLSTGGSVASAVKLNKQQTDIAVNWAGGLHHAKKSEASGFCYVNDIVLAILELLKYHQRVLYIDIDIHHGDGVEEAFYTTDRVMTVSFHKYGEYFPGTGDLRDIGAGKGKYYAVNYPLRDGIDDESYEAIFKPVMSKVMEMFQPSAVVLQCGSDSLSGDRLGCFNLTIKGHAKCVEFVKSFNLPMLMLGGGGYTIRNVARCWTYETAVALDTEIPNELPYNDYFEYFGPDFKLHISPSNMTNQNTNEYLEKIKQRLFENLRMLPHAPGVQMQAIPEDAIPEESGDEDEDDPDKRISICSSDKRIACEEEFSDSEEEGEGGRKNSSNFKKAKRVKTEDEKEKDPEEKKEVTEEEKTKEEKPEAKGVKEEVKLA
# Sequence of HDAC4 (P56524 whole entry): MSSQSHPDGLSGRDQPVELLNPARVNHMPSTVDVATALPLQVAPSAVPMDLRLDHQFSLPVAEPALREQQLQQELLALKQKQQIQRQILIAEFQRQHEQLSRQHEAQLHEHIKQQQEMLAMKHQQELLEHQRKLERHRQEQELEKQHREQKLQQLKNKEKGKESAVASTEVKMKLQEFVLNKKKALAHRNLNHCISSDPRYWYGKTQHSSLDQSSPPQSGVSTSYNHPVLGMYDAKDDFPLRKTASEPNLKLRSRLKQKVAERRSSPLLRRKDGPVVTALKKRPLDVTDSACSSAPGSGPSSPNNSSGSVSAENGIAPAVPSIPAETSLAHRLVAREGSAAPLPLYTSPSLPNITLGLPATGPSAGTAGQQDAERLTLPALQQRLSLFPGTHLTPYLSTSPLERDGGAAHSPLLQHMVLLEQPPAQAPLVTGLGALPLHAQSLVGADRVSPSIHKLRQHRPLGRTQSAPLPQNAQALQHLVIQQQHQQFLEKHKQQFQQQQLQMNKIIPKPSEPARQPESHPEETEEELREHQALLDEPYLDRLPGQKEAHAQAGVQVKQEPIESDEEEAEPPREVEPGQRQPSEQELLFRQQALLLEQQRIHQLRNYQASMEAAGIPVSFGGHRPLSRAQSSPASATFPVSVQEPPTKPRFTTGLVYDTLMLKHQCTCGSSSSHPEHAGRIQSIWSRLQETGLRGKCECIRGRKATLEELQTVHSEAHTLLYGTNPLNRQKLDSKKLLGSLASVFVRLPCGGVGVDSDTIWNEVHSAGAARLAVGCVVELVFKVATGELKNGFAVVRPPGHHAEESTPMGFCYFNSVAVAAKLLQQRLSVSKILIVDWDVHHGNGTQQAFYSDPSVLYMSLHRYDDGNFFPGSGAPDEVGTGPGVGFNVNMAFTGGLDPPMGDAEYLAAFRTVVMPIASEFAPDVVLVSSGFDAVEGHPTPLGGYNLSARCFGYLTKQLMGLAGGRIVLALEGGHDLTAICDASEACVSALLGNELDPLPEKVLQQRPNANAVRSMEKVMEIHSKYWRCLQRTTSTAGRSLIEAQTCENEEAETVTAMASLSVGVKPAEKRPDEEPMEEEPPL
# Sequence of HDAC9 (Q9UKV0 whole entry): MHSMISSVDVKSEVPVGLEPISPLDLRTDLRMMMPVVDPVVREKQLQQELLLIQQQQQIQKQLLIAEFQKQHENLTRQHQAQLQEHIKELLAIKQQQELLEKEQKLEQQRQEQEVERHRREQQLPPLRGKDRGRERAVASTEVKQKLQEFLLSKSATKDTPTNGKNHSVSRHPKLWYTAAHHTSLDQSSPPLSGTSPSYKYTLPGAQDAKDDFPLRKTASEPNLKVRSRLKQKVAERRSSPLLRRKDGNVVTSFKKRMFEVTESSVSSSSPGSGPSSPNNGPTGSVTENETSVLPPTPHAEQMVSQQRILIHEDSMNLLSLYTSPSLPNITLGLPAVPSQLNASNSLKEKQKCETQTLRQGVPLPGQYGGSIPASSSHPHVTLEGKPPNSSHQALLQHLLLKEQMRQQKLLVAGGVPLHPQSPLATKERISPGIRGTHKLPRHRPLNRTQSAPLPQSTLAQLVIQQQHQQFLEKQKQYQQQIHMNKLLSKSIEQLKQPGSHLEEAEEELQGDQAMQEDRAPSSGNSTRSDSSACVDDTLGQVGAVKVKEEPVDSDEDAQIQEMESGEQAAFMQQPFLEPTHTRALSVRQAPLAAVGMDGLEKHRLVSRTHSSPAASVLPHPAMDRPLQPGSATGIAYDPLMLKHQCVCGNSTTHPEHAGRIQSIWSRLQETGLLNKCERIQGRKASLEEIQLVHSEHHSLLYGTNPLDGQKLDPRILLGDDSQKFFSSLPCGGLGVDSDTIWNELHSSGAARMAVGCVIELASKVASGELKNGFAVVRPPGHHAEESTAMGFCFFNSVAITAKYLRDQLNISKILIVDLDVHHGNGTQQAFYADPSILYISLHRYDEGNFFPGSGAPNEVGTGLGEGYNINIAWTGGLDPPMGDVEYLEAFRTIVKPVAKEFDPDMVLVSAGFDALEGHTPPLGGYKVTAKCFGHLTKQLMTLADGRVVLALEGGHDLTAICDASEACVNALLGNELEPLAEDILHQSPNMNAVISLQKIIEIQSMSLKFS
# Sequence of HDAC5 (Q9UQL6 whole entry): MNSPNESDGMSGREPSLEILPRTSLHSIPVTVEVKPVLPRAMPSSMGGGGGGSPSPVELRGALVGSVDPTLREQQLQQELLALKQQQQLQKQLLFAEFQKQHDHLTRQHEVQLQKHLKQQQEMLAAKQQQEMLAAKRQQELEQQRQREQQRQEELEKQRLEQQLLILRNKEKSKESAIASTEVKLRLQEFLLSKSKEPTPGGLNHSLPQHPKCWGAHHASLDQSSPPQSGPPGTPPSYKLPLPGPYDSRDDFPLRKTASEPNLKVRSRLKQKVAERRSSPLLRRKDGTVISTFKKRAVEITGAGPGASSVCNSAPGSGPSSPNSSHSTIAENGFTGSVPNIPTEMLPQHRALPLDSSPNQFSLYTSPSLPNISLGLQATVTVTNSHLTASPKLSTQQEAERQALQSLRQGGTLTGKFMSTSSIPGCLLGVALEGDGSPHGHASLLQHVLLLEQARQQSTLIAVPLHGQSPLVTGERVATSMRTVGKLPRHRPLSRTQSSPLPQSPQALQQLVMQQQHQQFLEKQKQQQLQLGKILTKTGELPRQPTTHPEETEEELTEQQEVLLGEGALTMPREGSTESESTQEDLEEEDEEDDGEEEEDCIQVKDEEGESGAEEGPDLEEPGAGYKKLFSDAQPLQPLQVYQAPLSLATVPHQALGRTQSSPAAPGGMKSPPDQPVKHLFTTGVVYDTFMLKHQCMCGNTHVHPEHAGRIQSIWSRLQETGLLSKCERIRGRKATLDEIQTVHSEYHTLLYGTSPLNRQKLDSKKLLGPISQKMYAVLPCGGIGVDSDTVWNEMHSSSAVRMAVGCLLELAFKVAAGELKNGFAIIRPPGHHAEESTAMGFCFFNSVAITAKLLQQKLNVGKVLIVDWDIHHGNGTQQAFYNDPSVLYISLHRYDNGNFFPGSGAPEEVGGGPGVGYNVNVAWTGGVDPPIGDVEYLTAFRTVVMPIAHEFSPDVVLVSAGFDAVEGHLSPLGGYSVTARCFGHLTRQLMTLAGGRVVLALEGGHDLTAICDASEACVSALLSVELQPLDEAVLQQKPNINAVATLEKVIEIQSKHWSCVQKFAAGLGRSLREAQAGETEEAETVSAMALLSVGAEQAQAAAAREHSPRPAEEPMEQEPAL
# Sequence of HDAC2 (Q92769 whole entry): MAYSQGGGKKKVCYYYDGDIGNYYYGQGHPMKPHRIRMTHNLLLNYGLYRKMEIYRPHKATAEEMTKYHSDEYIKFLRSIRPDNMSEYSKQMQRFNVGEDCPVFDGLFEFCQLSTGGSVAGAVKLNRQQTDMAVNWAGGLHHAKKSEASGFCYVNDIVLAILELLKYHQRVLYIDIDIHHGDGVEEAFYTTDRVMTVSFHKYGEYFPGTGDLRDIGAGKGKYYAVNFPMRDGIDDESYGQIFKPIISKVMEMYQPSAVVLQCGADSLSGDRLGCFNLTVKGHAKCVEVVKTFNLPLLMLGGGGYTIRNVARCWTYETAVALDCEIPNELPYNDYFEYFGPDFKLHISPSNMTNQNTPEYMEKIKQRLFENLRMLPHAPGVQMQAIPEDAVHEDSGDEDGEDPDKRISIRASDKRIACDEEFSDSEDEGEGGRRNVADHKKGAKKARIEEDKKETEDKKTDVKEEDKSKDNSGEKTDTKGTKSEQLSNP
structure (smiles),measurement,setting,value
"Nc1ncn([C@H]2C[C@H](O)[C@@H](CO)O2)c(=O)n1 [5azaCytD, 5-aza-deoxycytidine]","Silencing of p16, semi-quantitative RT-PCR",p16 expression,reversed
C/C=C1\NC(=O)[C@H]2CSSCC/C=C/[C@H](CC(=O)N[C@H](C(C)C)C(=O)N2)OC(=O)[C@H](C(C)C)NC1=O [FR901228],Sensitivity of HDAC1 to the inhibitor,HDAC1,Yes
same,Sensitivity of HDAC4 to the inhibitor,HDAC4,weak
same,Sensitivity of HDAC6 to the inhibitor,HDAC6,weak
same,Sensitivity of HDAC3 to the inhibitor,HDAC3; Class 1 HDAC,Yes
Nc1ccccc1NC(=O)c1ccc(CNC(=O)OCc2cccnc2)cc1 [MS-275],Toxicity to cell lines compared to butyrate,H23 and SW13 cell lines,increased toxicity
O=C1N[C@@H](Cc2ccccc2)C(=O)N2CCC[C@@H]2C(=O)N[C@@H](CCCCCC(=O)[C@@H]2CO2)C(=O)N[C@H]1Cc1ccccc1 [Trapoxin] (cyclo(FF[dP][Aoe])),Sensitivity of HDAC6 to the inhibitor,HDAC6,No
same,Sensitivity of HDAC10 to the inhibitor,HDAC10,No
same,Sensitivity of HDAC3 to the inhibitor,HDAC3; Class 1 HDAC,Yes
same,IC50,HDAC3,~0.1 µM
"CC(/C=C/C(=O)NO)=C\[C@@H](C)C(=O)c1ccc(N(C)C)cc1 [Trichostatin A, trichostatin A]",Sensitivity of HDAC9 to the inhibitor,HDAC9,Yes
same,Sensitivity of HDAC1 to the inhibitor,HDAC1,Yes
same,Sensitivity of HDAC4 to the inhibitor,HDAC4,Yes
same,Sensitivity of HDAC6 to the inhibitor,HDAC6,Yes
same,Sensitivity of HDAC10 to the inhibitor,HDAC10,Yes
same,Sensitivity of HDAC5 to the inhibitor,HDAC5,Yes
same,Sensitivity of Class 3 HDACs to the inhibitor,Class 3 HDACs,Resistance
same,Sensitivity of HDAC8 to the inhibitor,HDAC8,Yes
"CCCC(CCC)C(=O)O [Valpoic Acid, valproic acid]",Sensitivity of HDAC1 to the inhibitor,HDAC1,yes
same,Sensitivity of HDAC2 to the inhibitor,HDAC2,yes
CCCC(=O)[O-].[Na+] [sodium butyrate],Sensitivity of HDAC1 to the inhibitor,HDAC1,Yes
same,IC50,HDAC1,~300 µM
same,Sensitivity of HDAC6 to the inhibitor,HDAC6,No
same,Sensitivity of HDAC10 to the inhibitor,HDAC10,No
same,Sensitivity of HDAC3 to the inhibitor,HDAC3,Yes
same,IC50,HDAC3,~300 µM
same,Time at which BRM protein levels returned to baseline after medium change,"BRM expression [1]; 5 mM for three consecutive days, medium changed on fourth day (FIG. 3B)",4 to 5 days
same,Change in BRM expression with continued treatment for an additional 48 hours,"BRM expression [1]; SW13, after plateau (FIG. 3A)",Little change
same,"Time at which BRM protein expression reached a plateau, western blot",BRM expression [1]; [3],24 h
same,"Time at which upregulation of BRM protein was detected, western blot",BRM expression [1]; [3],12 h
same,"Time BRM mRNA level remained elevated after removal, quantitative RT-PCR",BRM expression [1]; [4],3 days
same,"Time at which BRM mRNA returned to baseline after removal, quantitative RT-PCR",BRM expression [1]; [4],≤ 4 days
same,Time BRM protein levels remained elevated after removal,BRM expression [1]; [5],72 h
same,Time at which BRM protein returned to near baseline after removal,BRM expression [1]; [5],96 h
same,"Induction of BRM, RT-PCR","BRM expression [2]; Panc-1 and H513 cell lines, butyrate treatment",failed to demonstrate an appreciable induction
same,"Number of the ten BRG1/BRM-deficient cell lines showing BRM transcript re-expression, RT-PCR","BRM expression [2]; after butyrate treatment, of ten cell lines",eight
same,"Upregulation of BRM, cyber-green quantitation PCR","BRM expression [2]; butyrate treatment, responding BRG1/BRM-deficient cell lines",8-20 fold
same,Sensitivity of Class 3 HDACs to the inhibitor,Class 3 HDACs,Resistance
same,Sensitivity of HDAC8 to the inhibitor,HDAC8,Yes
